{"source": "paper PMC8095314", "about": "(ChemistryOpen, 2021)", "key": {"recombinant human CA XII [1]": {"target": "T1, recombinant human CA XII (Homo sapiens, UniProt O43570)", "T1 sequence (O43570 25-354)": "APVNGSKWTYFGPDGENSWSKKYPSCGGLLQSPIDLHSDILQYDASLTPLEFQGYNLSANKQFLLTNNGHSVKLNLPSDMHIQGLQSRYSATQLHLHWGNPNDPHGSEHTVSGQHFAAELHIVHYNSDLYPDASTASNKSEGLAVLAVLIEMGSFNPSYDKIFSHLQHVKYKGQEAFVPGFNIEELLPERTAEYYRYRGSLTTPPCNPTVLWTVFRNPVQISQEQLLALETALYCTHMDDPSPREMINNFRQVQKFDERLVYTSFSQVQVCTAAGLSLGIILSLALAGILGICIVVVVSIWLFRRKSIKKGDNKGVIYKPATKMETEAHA", "format": "binding", "details": "from FTSA Kd"}, "chCA XII": {"target": "chCA XII (Homo sapiens, UniProt P00918, A65S/F130A/I91T/L203N/N67K/V134S)", "assay": "Fluorescent thermal shift assay"}, "recombinant human CA II": {"target": "recombinant human CA II (Homo sapiens, UniProt P00918)", "details": "read-out: Kd CA II (FTSA); observed, pH 7.0, 37 °C; cited from earlier work"}, "recombinant human CA XII [2]": {"target": "T1, recombinant human CA XII", "details": "read-out: Kd CA XII (FTSA); observed, pH 7.0, 37 °C; cited from earlier work"}, "His64": {"tested_on": "His64", "assay": "kinetics", "details": "cited from earlier work"}}, "note": "Values joined by “and” are separate entries in the source; they are usually repeats but may differ in a detail not shown here. Equal values may be shown once."}
{"compound": "NS(=O)(=O)c1ccc2ccccc2c1", "note": "[Compound 37, naphthalene‐2‐sulfonamide]", "values": [{"measurement": "Kd ratio CA XII/CA II", "setting": "recombinant human CA XII [1]", "value": 8.2}, {"measurement": "Kd", "setting": "chCA XII", "value": 6.7, "unit": "µM"}, {"measurement": "Kd", "setting": "recombinant human CA II", "value": 0.77, "unit": "µM"}, {"measurement": "Kd", "setting": "recombinant human CA XII [2]", "value": 6.3, "unit": "µM"}]}
{"compound": "Carbonic anhydrase XII (CA XII) (Homo sapiens)", "values": [{"measurement": "pKa", "setting": "His64", "value": "8.0±0.2 and 7.5±0.1"}]}
